Measurements as given in patent publication US20230011869A1 (Hoffmann-La Roche Inc., priority 2018, published 2023).
Counter-ions that a name gives are not always drawn. Like-named read-outs stand apart in the source and are kept apart here.

System: Acinetobacter baumannii ATCC17978
Assay: Antimicrobial susceptibility testing: 90% growth inhibitory concentration (IC90) determination, Iso-Sensitest broth
Format: cell-based
Summary of the method: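 A. baumannii ATCC17978 grown in Iso-Sensitest broth across 10 compound concentrations at 35±2 °C.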

[1] = 90% growth inhibitory concentration, Acinetobacter baumannii ATCC17978, Iso-Sensitest broth, OD 600 nm over 16 h, read-out: ATCC17978 IC90
[2] = Acinetobacter baumannii, ATCC17978, 16 h, read-out: ATCC17978 IC90, 90% growth inhibitory concentration, Acinetobacter baumannii ATCC17978, Iso-Sensitest broth, OD 600 nm over 16 h

| IC90 [1] | SMILES | IC90 [2] | further results |
| --- | --- | --- | --- |
|  | COc1ccc(-c2cnc3c(Nc4ccc(C(=O)N5CCC(C(=O)NCC6CNC6)CC5)c(C)c4)nccn23)cc1F [Example 60, N-(azetidin-3-ylmethyl)-1-(4-((3-(3-fluoro-4-methoxyphenyl)imidazo[1,2-a]pyrazin-8-yl)amino)-2-methylbenzoyl)piperidine-4-carboxamide 2,2,2-trifluoroacetate] |  | IC90 (read-out: ATCC17978 IC90, 90% growth inhibitory concentration, Acinetobacter baumannii ATCC17978, Iso-Sensitest broth, OD 600 nm over 16 h, 2,2,2-trifluoroacetate): 210 nM |
| 85 nM | N#CCOc1ccc(-c2cnc3c(Nc4ccc(C(=O)N5CCC(C(=O)OCC6CNCCN6)CC5)c(Cl)c4)nccn23)c(F)c1F (centres unmarked) [Example 98, piperazin-2-ylmethyl 1-[2-chloro-4-[[3-[4-(cyanomethoxy)-2,3-difluoro-phenyl]imidazo[1,2-a]pyrazin-8-yl]amino]benzoyl]piperidine-4-carboxylate trifluoroacetate] |  |  |
| 140 nM | COc1ccc(-c2cnc3c(Nc4ccc(C(=O)N5CCC(C(=O)N6CCNCC6)CC5)c(C)c4)nccn23)cc1F [Example 14, (1-(4-((3-(3-fluoro-4-methoxyphenyl)imidazo[1,2-a]pyrazin-8-yl)amino)-2-methylbenzoyl)piperidin-4-yl)(piperazin-1-yl)methanone hydrochloride] |  |  |
| 410 nM | Cc1cc(Nc2nccn3c(-c4ccc(OC(F)F)cc4)cnc23)ccc1C(=O)N1CCC(N2CCNC2=O)CC1 [Example 9, 1-(1-(4-((3-(4-(difluoromethoxy)phenyl)imidazo[1,2-a]pyrazin-8-yl)amino)-2-methylbenzoyl)piperidin-4-yl)imidazolidin-2-one] |  |  |
|  | Cc1cc(Nc2nccn3c(-c4ccc(OC(F)F)cc4)cnc23)ccc1C(=O)N1CCN(C(=O)C2CNC2)CC1 [Example 335, [4-(azetidine-3-carbonyl)piperazin-1-yl]-[4-[[3-[4-(difluoromethoxy)phenyl]imi-dazo[1,2-a]pyrazin-8-yl]amino]-2-methylphenyl]methanone; hy-drochloride] | 450 nM |  |
| 160 nM | Cc1cc(Nc2nccn3c(-c4ccc(OC(F)F)cc4)cnc23)ccc1C(=O)N1CCC(C2CNC2)CC1 [Example 20, (4-(azetidin-3-yl)piperidin-1-yl)(4-((3-(4-(difluoromethoxy)phenyl)imidazo[1,2-a]pyrazin-8-yl)amino)-2-methylphenyl)methanone hydrochloride] |  |  |
|  | Cc1cc(Nc2nccn3c(-c4ccc(OC(F)F)cc4)cnc23)ccc1C(=O)N1CCN(C(=O)[C@@H](N)CCCN)CC1 [Example 513, (2S)-2,5-diamino-1-[4-[4-[[3-[4-(difluoromethoxy)phenyl]imi-dazo[1,2-a]pyrazin-8-yl]amino]-2-methylbenzoyl]piperazin-1-yl]pentan-1-one; hydrochloride] | 610 nM |  |
| 110 nM | Cc1cc(Nc2nccn3c(-c4ccc(OC(F)F)cc4)cnc23)ccc1C(=O)N1CCC(CCN)CC1 [Example 3, (4-(2-Aminoethyl)piperidin-1-yl)(4-((3-(4-(difluoromethoxy)phenyl)imidazo[1,2-a]pyrazin-8-yl)amino)-2-methylphenyl)methanone hydrochloride] |  |  |
| 1800 nM | COc1ccc(-c2cnc3c(Nc4ccc(C(=O)N5CC6(C5)CN(C5CC5)C6)c(C)c4)nccn23)cc1F [Example 434, (6-cyclopropyl-2,6-diazaspiro[3.3]heptan-2-yl)-[4-[[3-(3-fluoro-4-methoxyphenyl)imidazo[1,2-a]pyrazin-8-yl]amino]-2-methylphenyl]methanone] |  |  |
| 210 nM | COc1ccc(-c2cnc3c(Nc4ccc(C(=O)N5CCC(C(=O)NC[C@H](O)[C@@H](O)[C@H](O)[C@H](O)CO)CC5)c(C)c4)nccn23)c(F)c1F [Example 300, 1-[4-[[3-(2,3-difluoro-4-methoxyphenyl)imidazo[1,2-a]pyrazin-8-yl]amino]-2-methylbenzoyl]-N-[(2S,3R,4R,5R)-2,3,4,5,6-pentahydroxyhexyl]piperidine-4-carboxamide] |  |  |
|  | Cc1cc(Nc2nccn3c(-c4ccc(OC(F)F)cc4)cnc23)ccc1C(=O)N1CCCC(N)C1 (centres unmarked) [Example 368, (3-aminopiperidin-1-yl)-[4-[[3-[4-(difluoromethoxy)phenyl]imi-dazo[1,2-a]pyrazin-8-yl]amino]-2-methylphenyl]methanone; hy-drochloride] | 810 nM |  |
| 550 nM | COc1ccc(-c2cnc3c(Nc4ccc(C(=O)N5CCN(S(=O)(=O)N(C)C)CC5)c(C)c4)nccn23)cc1F [Example 408, 4-[4-[[3-(3-fluoro-4-methoxyphenyl)imidazo[1,2-a]pyrazin-8-yl]amino]-2-methylbenzoyl]-N,N-dimethylpiperazine-1-sulfonamide] |  |  |
| 130 nM | Cc1cc(Nc2nccn3c(-c4ccc(OC(F)F)cc4)cnc23)ccc1C(=O)N1CCC(n2cncn2)CC1 [Example 8, (4-(1H-1,2,4-triazol-1-yl)piperidin-1-yl)(4-((3-(4-(difluoromethoxy)phenyl)imidazo[1,2-a]pyrazin-8-yl)amino)-2-methylphenyl)methanone] |  |  |
|  | Cc1cc(Nc2nccn3c(-c4ccc(OC(F)F)cc4)cnc23)ccc1C(=O)N1CCN(C(=O)NCCN(C)C)CC1 [Example 520, 4-[4-[[3-[4-(difluoromethoxy)phenyl]imi-dazo[1,2-a]pyrazin-8-yl]amino]-2-methylbenzoyl]-N-[2-(dimethylamino)ethyl]pipera-zine-1-carboxamide] | 310 nM |  |
|  | CCc1cc(Nc2nccn3c(-c4ccc(OCC#N)c(F)c4F)cnc23)ccc1C(=O)N1CCC(CCN)CC1 [Example 309, 2-[4-[8-[4-[4-(2-aminoethyl)piperidine-1-carbonyl]-3-ethylanilino]imidazo[1,2-a]pyrazin-3-yl]-2,3-difluorophenoxy]acetonitrile; formic acid] | 130 nM |  |
|  | Cc1cc(Nc2nccn3c(-c4ccc(OC(F)F)cc4)cnc23)ccc1C(=O)N1CCC(C(=O)N(C)CCN2CCNC(=O)C2)CC1 [Example 404, 1-[4-[[3-[4-(difluoromethoxy)phenyl]imi-dazo[1,2-a]pyrazin-8-yl]amino]-2-methylbenzoyl]-N-methyl-N-[2-(3-oxopiperazin-1-yl)ethyl]piperidine-4-carboxamide] | 470 nM |  |
| 250 nM | Cc1cc(Nc2nccn3c(-c4ccc(OC(F)F)cc4)cnc23)ccc1C(=O)N1CCC(N2CCN(C)CC2)CC1 [Example 36, (4-((3-(4-(difluoromethoxy)phenyl)imidazo[1,2-a]pyrazin-8-yl)amino)-2-methylphenyl)(4-(4-methylpiperazin-1-yl)piperidin-1-yl)methanone] |  |  |
|  | CCNC(=O)CN1CCN(C(=O)c2ccc(Nc3nccn4c(-c5ccc(OC(F)F)cc5)cnc34)cc2C)CC1 [Example 352, 2-[4-[4-[[3-[4-(difluoromethoxy)phenyl]imi-dazo[1,2-a]pyrazin-8-yl]amino]-2-methylbenzoyl]piperazin-1-yl]-N-ethylacetamide] | 220 nM |  |
| 2000 nM | COc1ccc(-c2cnc3c(Nc4ccc(C(=O)N5CCCC(CN(C)C)C5)c(C)c4)nccn23)cc1F (centres unmarked) [Example 252, [3-[(dimethylamino)methyl]pi-peridin-1-yl]-[4-[[3-(3-fluoro-4-methoxyphenyl)imidazo[1,2-a]pyrazin-8-yl]amino]-2-methylphenyl]methanone] |  |  |
| 260 nM | COc1ccc(-c2cnc3c(Nc4ccc(C(=O)N5CCC(C(=O)NC(CO)(CO)CO)CC5)c(C)c4)nccn23)cc1F [Example 388, N-[1,3-dihydroxy-2-(hydroxymethyl)propan-2-yl]-1-[4-[[3-(3-fluoro-4-methoxyphenyl)imidazo[1,2-a]pyrazin-8-yl]amino]-2-methylbenzoyl]piperidine-4-carboxamide] |  |  |
| 200 nM | Cc1cc(Nc2nccn3c(-c4ccc(O[C@@H](C)C#N)c(F)c4F)cnc23)ccc1C(=O)N1CCN(C(=O)[C@@H]2C[C@@H](O)CN2)CC1 [Example 468, (2S)-2-[2,3-difluoro-4-[8-[4-[4-[(2S,4R)-4-hydroxypyrrolidine-2-carbonyl]piperazine-1-carbonyl]-3-methylanilino]imidazo[1,2-a]pyrazin-3-yl]phenoxy]propanenitrile; for-mic acid] |  |  |
| 490 nM | Cc1cc(Nc2nccn3c(-c4ccc(OCC#N)c(F)c4F)cnc23)ccc1C(=O)N1CCN(C(=O)C2CNC2)CC1 [Example 504, 2-[4-[8-[4-[4-(azetidine-3-carbonyl)piperazine-1-carbonyl]-3-methylanilino]imidazo[1,2-a]pyrazin-3-yl]-2,3-difluorophenoxy]acetonitrile; formic acid] |  |  |
| 260 nM | Cc1cc(Nc2nccn3c(-c4ccc(OC(F)F)cc4)cnc23)ccc1C(=O)N1CCC(Cc2cnc[nH]2)CC1 [Example 72, (4-((1H-imidazol-4-yl)methyl)piperidin-1-yl)(4-((3-(4-(difluoromethoxy)phenyl)imidazo[1,2-a]pyrazin-8-yl)amino)-2-methylphenyl)methanone] |  |  |
|  | Cc1cc(Nc2nccn3c(-c4ccc(OC(F)F)cc4)cnc23)ccc1C(=O)N1CCN(C(=O)CN2CCNCC2)CC1 [Example 347, 1-[4-[4-[[3-[4-(difluoromethoxy)phenyl]imi-dazo[1,2-a]pyrazin-8-yl]amino]-2-methylbenzoyl]piperazin-1-yl]-2-piperazin-1-ylethanone] | 650 nM |  |
|  | COC(=O)CC[C@H](N)C(=O)N1CCN(C(=O)c2ccc(Nc3nccn4c(-c5ccc(OC(F)F)cc5)cnc34)cc2C)CC1 [Example 444, methyl (4S)-4-amino-5-[4-[4-[[3-[4-(difluoromethoxy)phenyl]imi-dazo[1,2-a]pyrazin-8-yl]amino]-2-methylbenzoyl]piperazin-1-yl]-5-oxopentanoate; hydrochloride] | 1900 nM |  |
|  | COc1ccc(-c2cnc3c(Nc4ccc(C(=O)N5CCC(C(=O)N6CCNC(C(=O)O)C6)CC5)c(C)c4)nccn23)cc1F (centres unmarked) [Example 264, 4-[1-[4-[[3-(3-fluoro-4-methoxyphenyl)imidazo[1,2-a]pyrazin-8-yl]amino]-2-methylbenzoyl]piperidine-4-carbonyl]piperazine-2-carboxylic acid; formic acid] | 1100 nM |  |
